Where two headings read alike, the source gives them in different places. Numbered stars: 1 amine (or outer) side, 2 acyl side, 3 side chain; on linkers, the order of the positions; unused ones are H or OH. Bridge positions count the residues as written; N and C are the ends. Square brackets hold non-standard residues; d marks the D form. Peptide text beside a SMILES is read from it. * marks the point of attachment. Orn(4R-OH,5R-OCH2CH2NMe3+) = C[N+](C)(C)CCO[C@@H](N[*:3])[C@H](O)C[C@H](N[*:1])C(=O)[*:2]; pTerphenylCO(4''-OnC5H11) = CCCCCOc1ccc(-c2ccc(-c3ccc(C(=O)*)cc3)cc2)cc1; hTyr(3S-OH,4S-OH) = N[C@H](C(=O)O)[C@H](O)[C@@H](O)c1ccc(O)cc1; Pro(3S-OH,4S-Me) = C[C@H]1CN[C@H](C(=O)O)[C@H]1O; Hyp = O=C(O)[C@@H]1C[C@@H](O)CN1
Tests used:
Type in all cases: in vivo, humans
[1] = Single-ascending-dose phase 1 study: plasma and urine pharmacokinetics; conditions: for Vd / clearance / half-life / Cmax: plasma, arithmetic mean; for Vd: iv; for Cmax: LC-MS/MS
Protocol: (§1) The single-ascending-dose and multiple-ascending-dose studies were phase 1, randomized, double-blind, dose-escalation, placebo-controlled, single-center safety trials of CD101 IV in healthy adults (ClinicalTrials.gov identifiers: NCT02516904 for the single-ascending-dose study; NCT02551549 for the multiple-ascending-dose study). In the single-ascending-dose study, 4 cohorts (corresponding to doses of 50, 100, 200, and 400 mg) of 8 subjects (6 active and 2 placebo) received CD101 IV or placebo infused over 60 (±5) min. In the multiple-ascending-dose study, 3 cohorts (cohort 1, 100 mg ×2 doses; cohort 2, 200 mg ×2 doses; cohort 3, 400 mg ×3 doses) of 8 subjects (6 active and 2 placebo) received CD101 IV or placebo (normal saline solution) infused over 60 (±5) min, with doses separated by 7 days.
(§2) Extensive PK sampling from plasma and urine was performed for all subjects following study drug administration and over the 3 weeks after the last dose of study drug. Plasma and urine samples from subjects who received CD101 IV were analyzed by a bioanalytical laboratory for CD101 concentration using a validated liquid chromatography-tandem mass spectrometry method with a lower limit of quantitation of 10 ng/ml.
(§3) Pharmacokinetics were assessed in the PK analysis population and included Cmax, AUC, Cl, elimination rate constant (λz), and terminal t1/2. Plasma concentration-time profiles were constructed for each subject and dosing cohort. For each plasma concentration-time curve, PK parameters were determined directly from inspection of the data or calculated using noncompartmental methods with validated PK software (Phoenix WinNonlin, Version 6.3). Urine concentration data were used to determine renal excretion and drug recovery rates. The number of subjects was selected to allow sufficient evaluation of safety, tolerability, and PK and was consistent with phase 1 standards of practice ([44]).

healthy adults [2] = assay: Multiple-ascending-dose phase 1 study: safety and tolerability
Protocol: as §1
(§4) All subjects were monitored for AEs throughout the study until 21 days after the last dose of study drug. Electrocardiograms, hematology and serum chemistry evaluations, and UA were performed at screening, on day −1, and at various time points during and for 14 days after the dosing period. Subjects remained in the clinical research unit for observation and safety assessments from day −1 until 7 days after the last dose of study drug. Three additional safety assessments were performed at weekly follow-up visits following the last dose of study drug. The long follow-up period ensured that any delayed safety events were captured, since CD101 has a very long t1/2 and plasma levels are expected to persist for several weeks. Safety was assessed ≥5 days after dosing by study physicians to determine whether it was safe to proceed to the next dose.
(§5) Safety was assessed in the safety analysis population. Safety was evaluated by presenting summaries of AEs, ECGs, clinical laboratory evaluations (hematology evaluation, chemistry panel, and UA), and vital signs. Adverse events were coded using the Medical Dictionary for Regulatory Activities Version 18.0. A TEAE was an AE that occurred during or after study drug administration and up through 21 (±1) days after study drug administration. The incidence of TEAEs was summarized by system organ class and preferred term, by relationship to study drug, and by severity. In addition, the incidence of serious TEAEs and the incidence of TEAEs leading to discontinuation of study drug were summarized by system organ class and preferred term. Descriptive statistics for clinical laboratory test results and vital signs, and for changes from baseline, were summarized by time point. Incidences of potentially clinically significant clinical laboratory results and vital signs were also summarized by time point. The numbers and percentages of abnormal ECGs were summarized by time point.

healthy adults [3] = assay: Single-ascending-dose phase 1 study: safety and tolerability
Protocol: as §1, §4, §5

[4] = Multiple-ascending-dose phase 1 study: plasma and urine pharmacokinetics; conditions: for Vd / clearance / half-life / level at 144 h: plasma; for Vd / clearance / half-life / level at 144 h / dose excreted: iv; for level at 144 h: read-out: trough concentration on day 7 (144 h postdose); for dose excreted: urine
Protocol: as §1, §2, §3

[5] = human, single 50 mg IV infusion over 1 h
[6] = human, single 100 mg IV infusion over 1 h
[7] = human, single 200 mg IV infusion over 1 h
[8] = human, single 400 mg IV infusion over 1 h
[9] = human, 100 mg, 100 mg IV once weekly x2, day 1, sampling interval 144 h, arithmetic mean
[10] = human, 100 mg, 100 mg IV once weekly x2, day 8, sampling interval 480 h, arithmetic mean
[11] = human, 200 mg, 200 mg IV once weekly x2, day 1, sampling interval 144 h, arithmetic mean
[12] = human, 200 mg, 200 mg IV once weekly x2, day 8, sampling interval 480 h, arithmetic mean
[13] = human, 400 mg, 400 mg IV once weekly x3, day 1, sampling interval 144 h, arithmetic mean
[14] = human, 400 mg, 400 mg IV once weekly x3, day 15, sampling interval 480 h, arithmetic mean
[15] = single and multiple doses, all dose levels

CCCCCOc1ccc(-c2ccc(-c3ccc(C(=O)N[C@H]4C[C@@H](O)[C@@H](OCC[N+](C)(C)C)NC(=O)[C@@H]5[C@@H](O)[C@@H](C)CN5C(=O)[C@H]([C@@H](C)O)NC(=O)[C@H]([C@H](O)[C@@H](O)c5ccc(O)cc5)NC(=O)[C@@H]5C[C@@H](O)CN5C(=O)[C@H]([C@@H](C)O)NC4=O)cc3)cc2)cc1 [CD101] ({pTerphenylCO(4''-OnC5H11)}-[Orn(4R-OH,5R-OCH2CH2NMe3+)]T[Hyp][hTyr(3S-OH,4S-OH)]T[Pro(3S-OH,4S-Me)]; lactam 1-C)
Vd ([1]; human, 50 mg, single 50 mg IV infusion over 1 h, read-out: Vss (volume of distribution at steady state)): 36 L | Vd ([1]; human, 50 mg, single 50 mg IV infusion over 1 h, read-out: Vz (apparent volume of distribution during terminal phase)): 43.2 L | Vd ([1]; human, 100 mg, single 100 mg IV infusion over 1 h, read-out: Vss (volume of distribution at steady state)): 42.9 L | Vd ([1]; human, 100 mg, single 100 mg IV infusion over 1 h, read-out: Vz (apparent volume of distribution during terminal phase)): 50.6 L | Vd ([1]; human, 200 mg, single 200 mg IV infusion over 1 h, read-out: Vss (volume of distribution at steady state)): 34.4 L | Vd ([1]; human, 200 mg, single 200 mg IV infusion over 1 h, read-out: Vz (apparent volume of distribution during terminal phase)): 39.7 L | Vd ([1]; human, 400 mg, single 400 mg IV infusion over 1 h, read-out: Vss (volume of distribution at steady state)): 35.9 L | Vd ([1]; human, 400 mg, single 400 mg IV infusion over 1 h, read-out: Vz (apparent volume of distribution during terminal phase)): 41.6 L | clearance [1, 5]: 3.75 mL/min | half-life [1, 5]: 133 h | Cmax ([1]; human, single 100 mg IV infusion over 1 h, read-out: Cmax): 4860 ng/mL | clearance [1, 6]: 4 mL/min | half-life [1, 6]: 146 h | clearance [1, 7]: 3.65 mL/min | half-life [1, 7]: 125 h | clearance [1, 8]: 3.77 mL/min | half-life [1, 8]: 129 h | Cmax ([1]; single 400 mg IV infusion over 1 h): 22700 ng/mL | mean half-life (t1/2) through the first week (up to day 7) of plasma sampling ([1]; single 50 to 400 mg IV doses): > 80 h | subjects with mild, transient infusion reactions (flushing, feeling hot, nausea, chest tightness) (healthy adults [2]; all CD101 cohorts, primarily cohort 3, most common with third dose): Four | subjects with TEAEs related to study drug (healthy adults [2]; cohort 1 (100 mg x2 weeks)): 1 subject | subjects with TEAEs related to study drug (healthy adults [2]; cohort 2 (200 mg x2 weeks)): 1 subject | subjects with moderate TEAEs (healthy adults [2]; cohort 2 (200 mg x2 weeks), arthropod bite and pruritus): 1 subject | subjects with TEAEs related to study drug (healthy adults [2]; cohort 3 (400 mg x3 weeks)): 4 subjects | subjects with gastrointestinal disorders (system organ class) (healthy adults [2]; cohort 3 (400 mg x3 weeks)): 4 [67%] subjects [%] | subjects with vascular disorders (system organ class) (healthy adults [2]; cohort 3 (400 mg x3 weeks)): 3 [50%] subjects [%] | subjects with moderate TEAEs (healthy adults [2]; cohort 3 (400 mg x3 weeks), constipation and myalgia): 2 subjects | SAEs, severe AEs, withdrawals due to an AE, deaths (healthy adults [3]; both studies, all dose levels): no serious adverse events (SAEs), severe adverse events (AEs), withdrawals due to an AE, or deaths | laboratory abnormalities, vital signs, ECG (healthy adults [3]; both studies, all dose levels): no clinically meaningful trends in postbaseline laboratory abnormalities | overall safety and tolerability (healthy adults [3]; both studies, single dose up to 400 mg, multiple doses up to 400 mg once weekly for 3 weeks): safe and well tolerated at all dose levels tested | subjects with gastrointestinal disorders (system organ class) (healthy adults [3]; cohort 1 (single 50 mg)): 2 [33%] subjects [%] | subjects with musculoskeletal and connective tissue disorders (healthy adults [3]; cohort 1 (single 50 mg)): 2 [33%] subjects [%] | subjects with gastrointestinal disorders (system organ class) (healthy adults [3]; cohort 3 (single 200 mg)): 2 [33%] subjects [%] | subjects with general disorders and administration site conditions (healthy adults [3]; cohort 3 (single 200 mg)): 2 [33%] subjects [%] | subjects with musculoskeletal and connective tissue disorders (healthy adults [3]; cohort 3 (single 200 mg)): 2 subjects | subjects with moderate TEAEs (healthy adults [3]; cohort 3 (single 200 mg), ear pain): 1 subject | subjects with musculoskeletal and connective tissue disorders (healthy adults [3]; cohort 4 (single 400 mg)): 1 subject | subjects with moderate TEAEs (healthy adults [3]; cohort 4 (single 400 mg), headache): 1 subject | Vss ([4]; 100 mg IV once weekly x2, day 8, arithmetic mean): 29.3 L | cumulative amount excreted in urine ([4]; cohort 1 (100 mg x2), day 1): 52.0 µg | mean renal clearance ([4]; cohort 1 (100 mg x2), day 1): 0.1877 mL/h | cumulative amount excreted in urine ([4]; cohort 1 (100 mg x2), day 8): 151.4 µg | cumulative amount excreted in urine ([4]; cohort 2 (200 mg x2), day 1): 145.0 µg | cumulative amount excreted in urine ([4]; cohort 2 (200 mg x2), day 8): 400.7 µg | cumulative amount excreted in urine ([4]; cohort 3 (400 mg x3), day 1): 330.6 µg | cumulative amount excreted in urine ([4]; cohort 3 (400 mg x3), day 15): 987.5 µg | mean renal clearance ([4]; cohort 3 (400 mg x3), day 15): 0.5965 mL/h | cumulative amount excreted in urine, times higher than on day 1 ([4]; days 8 and 15 vs day 1): approximately 3 times | t1/2 ([4]; following the first dose): approximately 80 h | Vd ([4]; human, 100 mg, 100 mg IV once weekly x2, day 1, arithmetic mean, read-out: Vss): 28.8 L | Vd ([4]; human, 100 mg, 100 mg IV once weekly x2, day 1, arithmetic mean, read-out: Vz): 29.5 L | clearance [4, 9]: 4.3 mL/min | half-life [4, 9]: 79.1 h | Vd ([4]; human, 100 mg, 100 mg IV once weekly x2, day 8, arithmetic mean, read-out: Vz): 33.8 L | clearance [4, 10]: 2.48 mL/min | half-life [4, 10]: 158 h | Vd ([4]; human, 200 mg, 200 mg IV once weekly x2, day 1, arithmetic mean, read-out: Vss): 31.7 L | Vd ([4]; human, 200 mg, 200 mg IV once weekly x2, day 1, arithmetic mean, read-out: Vz): 32.8 L | clearance [4, 11]: 4.65 mL/min | half-life [4, 11]: 81.3 h | Vd ([4]; human, 200 mg, 200 mg IV once weekly x2, day 8, arithmetic mean, read-out: Vss): 28.5 L | Vd ([4]; human, 200 mg, 200 mg IV once weekly x2, day 8, arithmetic mean, read-out: Vz): 30.9 L | clearance [4, 12]: 2.58 mL/min | half-life [4, 12]: 140 h | Vd ([4]; human, 400 mg, 400 mg IV once weekly x3, day 1, arithmetic mean, read-out: Vss): 29.6 L | Vd ([4]; human, 400 mg, 400 mg IV once weekly x3, day 1, arithmetic mean, read-out: Vz): 31.2 L | clearance [4, 13]: 4.47 mL/min | half-life [4, 13]: 81 h | Vd ([4]; human, 400 mg, 400 mg IV once weekly x3, day 15, arithmetic mean, read-out: Vss): 25.4 L | Vd ([4]; human, 400 mg, 400 mg IV once weekly x3, day 15, arithmetic mean, read-out: Vz): 27.9 L | clearance [4, 14]: 2.1 mL/min | half-life [4, 14]: 152 h | level at 144 h ([4]; human, 400 mg, following the first dose): ~4000 ng/mL | level at 144 h ([4]; human, 400 mg, following the third (last) dose): ~7000 ng/mL | half-life ([4]; human, following the second or third dose): ~150 h | dose excreted ([4]; human, all dose levels, both studies, read-out: fraction of dose excreted): < 1% | dose excreted ([4]; human, LC-MS/MS, read-out: amount of CD101 excreted in urine): ≤ 0.26% | AUC(0-t) ([4]; human, 200 mg IV once weekly x2, day 1, plasma, arithmetic mean, read-out: AUC0–168): 570 µg·h/mL | Cmax ([4]; human, 400 mg IV once weekly x3, day 1, plasma, arithmetic mean): 22700 ng/mL | apparent clearance [4, 15]: < 0.28 L/h | half-life (t1/2) [4, 15]: > 80 h

From publication PMC5278714, “Safety and Pharmacokinetics of CD101 IV, a Novel Echinocandin, in Healthy Adults” (Antimicrobial Agents and Chemotherapy, 2017)
